The numbers were not newly measured in publication PMC12308805, “Ultrahigh-Throughput Virtual Screening Strategies against PPI Targets: A Case Study of STAT Inhibitors” (Journal of Chemical Information and Modeling, 2025), which cites them from elsewhere.

The first data set relates to STAT3. The note with it: sheet 6QHD_actives_decoys; retrospective screening set for STAT3 SH2 domain (PDB 6QHD); […]; ref DUD-E; cited from earlier work.
As to `COc1ccc(S(=O)(=O)Nc2ccc(S(=O)(=O)Nc3nc(C)cc(C)n3)cc2)cc1F` [Decoy560], the Type result was “Inactive (Decoy)”.

Consider `COc1ccccc1[C@H](O)CNC(=O)c1cc(NS(=O)(=O)c2cccc([N+](=O)[O-])c2)ccc1O` [Decoy566], for which the Type entry is “Inactive (Decoy)”.

For the compound `O=c1c(C[C@@H](O)CN2CCOCC2)c(O)n(C[C@H](O)CN2CCOCC2)c(=O)n1C[C@H](O)CN1CCOCC1` [Decoy567], the Type entry is recorded as “Inactive (Decoy)”.

In the case of `O=c1c(C[C@@H](O)CN2CCOCC2)c(O)n(C[C@@H](O)CN2CCOCC2)c(=O)n1C[C@H](O)CN1CCOCC1` [Decoy568], the Type entry is on record as “Inactive (Decoy)”.

For `Cc1cc(NS(=O)(=O)c2ccc(NC(=O)CCCCC(=O)Nc3ccc(S(=O)(=O)Nc4cc(C)on4)cc3)cc2)no1` [Decoy592], the Type result is “Inactive (Decoy)”.

On to `COc1cc(/C=N\NC(=O)N/N=C/c2cc(OC)c(O)c([N+](=O)[O-])c2)cc([N+](=O)[O-])c1O` [Decoy599], for which the Type result was “Inactive (Decoy)”.

With `COc1ccccc1NS(=O)(=O)c1ccc(OC)c(NS(=O)(=O)c2ccc(C(=O)O)cc2)c1` [Decoy605], the Type result is reported as “Inactive (Decoy)”.

The same data set, now with this note: sheet 6QHD_actives_decoys; retrospective screening set for STAT3 SH2 domain (PDB 6QHD); decoys generated with DUD-E and presumed inactive, not tested; ref DUD-E; cited from earlier work.
For `CCCCCCCCCCC/C=C/C(=O)N[C@H]1[C@@H](O[C@H]2O[C@@H](CO)[C@@H](O)[C@@H](O)[C@H]2NC(C)=O)O[C@@H](C[C@H](O)[C@H]2O[C@@H](n3ccc(=O)[nH]c3=O)[C@@H](O)[C@H]2O)[C@@H](O)[C@H]1O` [Decoy557], the Type result was “Inactive (Decoy)”.

As for `CCCCCCCCCCC/C=C/C(=O)N[C@@H]1[C@@H](O[C@H]2O[C@@H](CO)[C@@H](O)[C@@H](O)[C@H]2NC(C)=O)O[C@@H](C[C@H](O)[C@H]2O[C@@H](n3ccc(=O)[nH]c3=O)[C@@H](O)[C@H]2O)[C@@H](O)[C@H]1O` [Decoy558], the Type entry is “Inactive (Decoy)”.

Turning to `COc1cc(/C=N/Nc2nnc(SCC(=O)NCCc3ccc(Cl)cc3)n2N)cc(OC)c1OC` [Decoy559], the Type entry is given as “Inactive (Decoy)”.

As for `CC(=O)N[C@@H](C=O)C[C@@H](O[C@@H]1O[C@H](COC(C)=O)[C@H](OC(C)=O)[C@H](OC(C)=O)[C@H]1OC(C)=O)[C@H](O)[C@H](O)CO` [Decoy561], the Type entry is “Inactive (Decoy)”.

Regarding `C=CCOC(=O)c1sc(NC(=O)[C@@H](C)n2c(N)nnc2SCc2ccccc2Cl)nc1C` [Decoy562], the Type entry is given as “Inactive (Decoy)”.

Regarding `Cc1ccc(Nc2cc(C)nc3cc(C(F)(F)F)ccc23)c(Br)c1` [Decoy563], the Type result is “Inactive (Decoy)”.

On to `CCCOc1ccc(C(=O)C2=C(O)C(=O)N(CCN3CCOCC3)[C@@H]2c2ccc(O)c(OC)c2)cc1C` [Decoy564], for which the Type entry is “Inactive (Decoy)”.

In the case of `CCCN(C(=O)c1cccc([N+](=O)[O-])c1)[C@H](C(=O)NCS(=O)(=O)c1ccc(C)cc1)c1ccc(O)cc1` [Decoy565], the Type result is recorded as “Inactive (Decoy)”.

For `CC(=O)O[C@@H]1[C@H](O)[C@H](CO)O[C@H](OCC2=CO[C@H](OC(=O)CC(C)C)[C@H]3[C@H]2C[C@H](OC(C)=O)[C@@]3(C)O)[C@@H]1OC(C)=O` [Decoy569], the Type result is on record as “Inactive (Decoy)”.

As for `CCC/C=C/[C@@H](C(=O)NCS(=O)(=O)c1ccc(C)cc1)N(CCC)C(=O)c1cc([N+](=O)[O-])ccc1O` [Decoy570], the Type result is recorded as “Inactive (Decoy)”.

For `COc1ccc(S(=O)(=O)NNC(=O)CCCCC(=O)NNS(=O)(=O)c2ccc(OC)cc2)cc1` [Decoy571], the Type result is on record as “Inactive (Decoy)”.

Consider `O=C(/C=C/c1ccc(O)c2c1[C@@H](C(=O)O[C@@H](Cc1ccc(O)c(O)c1)C(=O)O)[C@H](c1ccc(O)c(O)c1)O2)O[C@H](Cc1ccc(O)c(O)c1)C(=O)O` [Decoy572], for which the Type entry was “Inactive (Decoy)”.

Consider `COCCCNC(=O)C(=O)N/N=C/c1cc(I)c(OCC(=O)Nc2cccc(C(F)(F)F)c2)c(OC)c1` [Decoy573], for which the Type result was “Inactive (Decoy)”.

For the compound `C=CCn1c(CNc2ccc(Cl)cc2)nnc1S[C@@H](C)C(=O)N/N=C/c1ccc([N+](=O)[O-])s1` [Decoy574], the Type result was “Inactive (Decoy)”.

Turning to `Cc1ccc(S(=O)(=O)NNc2ncnc(NNC(=O)c3ccccc3)c2[N+](=O)[O-])cc1` [Decoy575], the Type result is “Inactive (Decoy)”.

For the compound `CCCn1c(O)nnc1SCC1=C(C(=O)OCC)[C@H](c2ccc(Cl)cc2)NC(=O)N1` [Decoy576], the Type entry is given as “Inactive (Decoy)”.

With `Cc1ccc(S(=O)(=O)CNC(=O)[C@H](c2ccc([N+](=O)[O-])cc2)N(Cc2ccco2)C(=O)CO)cc1` [Decoy577], the Type result was “Inactive (Decoy)”.

As for `CCCCOc1ccc([C@@H]2C(C(=O)c3nc4c(C)cccn4c3C)=C(O)C(=O)N2CCN(C)C)cc1OCC` [Decoy578], the Type entry is reported as “Inactive (Decoy)”.

In the case of `CC[C@@H]1OC(=O)[C@@H](C)[C@@H](O[C@@H]2C[C@@](C)(OC)[C@H](O)[C@H](C)O2)[C@@H](C)[C@@H](O[C@H]2O[C@@H](C)C[C@@H](N(C)C)[C@H]2O)[C@](C)(O)C[C@@H](C)/C(=N\OCOCCOC)[C@@H](C)[C@@H](O)[C@]1(C)O` [Decoy579], the Type entry is “Inactive (Decoy)”.

As to `CC[C@H]1OC(=O)[C@@H](C)[C@@H](O[C@@H]2C[C@@](C)(OC)[C@H](O)[C@H](C)O2)[C@@H](C)[C@@H](O[C@H]2O[C@@H](C)C[C@@H](N(C)C)[C@H]2O)[C@](C)(O)C[C@@H](C)/C(=N\OCOCCOC)[C@@H](C)[C@@H](O)[C@@]1(C)O` [Decoy580], the Type result is given as “Inactive (Decoy)”.

Consider `CC[C@H]1OC(=O)[C@H](C)[C@@H](O[C@@H]2C[C@@](C)(OC)[C@H](O)[C@H](C)O2)[C@H](C)[C@H](O[C@H]2O[C@@H](C)C[C@@H](N(C)C)[C@H]2O)[C@](C)(O)C[C@@H](C)/C(=N\OCOCCOC)[C@H](C)[C@@H](O)[C@]1(C)O` [Decoy581], for which the Type entry is “Inactive (Decoy)”.

Regarding `CC[C@H]1OC(=O)[C@H](C)[C@@H](O[C@@H]2C[C@](C)(OC)[C@H](O)[C@H](C)O2)[C@H](C)[C@H](O[C@H]2O[C@@H](C)C[C@@H](N(C)C)[C@H]2O)[C@](C)(O)C[C@@H](C)/C(=N\OCOCCOC)[C@H](C)[C@@H](O)[C@]1(C)O` [Decoy582], the Type result is “Inactive (Decoy)”.

`CC[N+]1=c2cc3c(cc2CCC1)=Nc1cc2c(cc1O3)N(CCCC(=O)NCCCCCNC(=O)CCCC[C@@H]1SC[C@@H]3NC(=O)N[C@@H]31)C(C)(C)C=C2CS(=O)(=O)[O-]` [Decoy583]: the Type entry is “Inactive (Decoy)”.

On to `COc1cc(/C=N/Nc2nc(SCC(=O)Nc3ccc(C)cc3C)n[nH]2)cc(OC)c1OC` [Decoy584], for which the Type result is recorded as “Inactive (Decoy)”.

Take `CCOC(=O)Cn1nnnc1[C@@H](CC)N(Cc1ccc(F)cc1)Cc1cc2cc3c(cc2[nH]c1=O)OCCO3` [Decoy585]: the Type entry was “Inactive (Decoy)”.

With `COc1ccc(CCNc2ccc3nnc(CCNS(=O)(=O)c4ccc(C)cc4)n3n2)cc1OC` [Decoy586], the Type result is on record as “Inactive (Decoy)”.

On to `CCOC(=O)CNC(=O)[C@@H](c1ccc(F)cc1)N(C(=O)c1snc(C(N)=O)c1N)c1ccccc1F` [Decoy587], for which the Type result is listed as “Inactive (Decoy)”.

With `C[N+]1=C(/C=C/C=C2/N(CCCCC(=O)NCCOCCOCCNCCO[C@H]3O[C@@H](CO)[C@@H](O)[C@H](O)[C@@H]3O)c3ccccc3C2(C)C)C(C)(C)c2ccccc21` [Decoy588], the Type result is “Inactive (Decoy)”.

As for `C[N+]1=C(/C=C/C=C2/N(CCCCC(=O)NCCOCCOCCNCCO[C@H]3O[C@@H](CO)[C@@H](O)[C@H](O)[C@H]3O)c3ccccc3C2(C)C)C(C)(C)c2ccccc21` [Decoy589], the Type result is listed as “Inactive (Decoy)”.

As for `CC(=O)OC[C@@H](OC(C)=O)[C@H](OC(C)=O)[C@H](OC(C)=O)[C@H](OC(C)=O)[C@@H]1N[C@H](C(=O)O)C(C)(C)S1` [Decoy590], the Type entry is recorded as “Inactive (Decoy)”.

As to `O=C(CSc1n[nH]c(N/N=C/c2cc(Cl)ccc2O)n1)NNC(=O)c1ccc(Cl)cc1` [Decoy591], the Type result was “Inactive (Decoy)”.

With `CCOC(=O)c1[nH]c(C)c(C(=O)C2=C(O)C(=O)N(CCCN(C)C)[C@@H]2c2cc(OC)c(OC)c(OC)c2)c1C` [Decoy593], the Type result is “Inactive (Decoy)”.

`CCOc1cc(/C=N/NC(=O)c2nnn(-c3nonc3N)c2CSC2=NCCS2)cc(Br)c1OCc1cccc(C)c1` [Decoy594]: the Type entry is recorded as “Inactive (Decoy)”.

As for `CCOC(=O)CNC(=O)CN1CCOCCOCCN(CC(=O)NCC(=O)OCC)CCOCCOCC1` [Decoy595], the Type entry was “Inactive (Decoy)”.

Turning to `CC[C@H]1OC(=O)[C@H](C)[C@@H](O[C@H]2OC[C@@](C)(OC)[C@@H](O)[C@@H]2C)[C@@H](C)[C@@H](O[C@H]2O[C@H](C)C[C@H](N(C)C)[C@H]2O)[C@](C)(O)C[C@H](C)/C(=N/O)[C@@H](C)[C@@H](O)[C@@]1(C)O` [Decoy596], the Type result is on record as “Inactive (Decoy)”.

In the case of `Cc1cc(C)n(CCCNC(=O)c2cc(=O)[nH]c3ccc(S(=O)(=O)N4CCOCC4)cc23)n1` [Decoy597], the Type entry is recorded as “Inactive (Decoy)”.

As to `CC(C)(C)c1cc(Br)cc([C@@H](CN(C(=O)CN)C(=O)c2cc(O)cc(N=C3NCC(O)CN3)c2)C(=O)O)c1` (some centres unmarked) [Decoy598], the Type result is on record as “Inactive (Decoy)”.

Regarding `CCOc1cc(N2CCOCC2)c(OCC)cc1NC(=O)c1oc2ccccc2c1CSc1ncn[nH]1` [Decoy600], the Type result was “Inactive (Decoy)”.

As for `C=CCn1c(CCCN2C(=O)c3cccc4cccc(c34)C2=O)nnc1SCC(=O)Nc1ccc(S(N)(=O)=O)cc1` [Decoy601], the Type entry is on record as “Inactive (Decoy)”.

Consider `Cc1ccc(S(=O)(=O)NCC(=O)N/N=C/c2ccc(OC(=O)c3ccccc3)cc2OC(=O)c2ccccc2)cc1` [Decoy602], for which the Type result was “Inactive (Decoy)”.

Regarding `CCCCCN(C(=O)Cn1c(=O)n(CC)c(=O)c2ccccc21)c1c(N)n(CCCC)c(=O)[nH]c1=O` [Decoy603], the Type entry is “Inactive (Decoy)”.

Turning to `CC[C@@H]1Oc2ccc(S(=O)(=O)N3CCN(C(=O)CNC(=O)c4cccs4)CC3)cc2NC1=O` [Decoy604], the Type result is reported as “Inactive (Decoy)”.

Take `COc1ccc(C[C@@H]2COC(=O)[C@@H]2Cc2ccc(O[C@@H]3O[C@H](CO)[C@@H](O)[C@H](O)[C@H]3O)c(OC)c2)cc1OC` [Decoy606]: the Type result is on record as “Inactive (Decoy)”.
